The record followed here is ChEMBL document CHEMBL1201862, “PubChem BioAssay data set” (2004).

For assay [1], the target named is T1, Sentrin-specific protease 7 (Homo sapiens, UniProt Q9BQF6).
T1 sequence (Q9BQF6 whole entry): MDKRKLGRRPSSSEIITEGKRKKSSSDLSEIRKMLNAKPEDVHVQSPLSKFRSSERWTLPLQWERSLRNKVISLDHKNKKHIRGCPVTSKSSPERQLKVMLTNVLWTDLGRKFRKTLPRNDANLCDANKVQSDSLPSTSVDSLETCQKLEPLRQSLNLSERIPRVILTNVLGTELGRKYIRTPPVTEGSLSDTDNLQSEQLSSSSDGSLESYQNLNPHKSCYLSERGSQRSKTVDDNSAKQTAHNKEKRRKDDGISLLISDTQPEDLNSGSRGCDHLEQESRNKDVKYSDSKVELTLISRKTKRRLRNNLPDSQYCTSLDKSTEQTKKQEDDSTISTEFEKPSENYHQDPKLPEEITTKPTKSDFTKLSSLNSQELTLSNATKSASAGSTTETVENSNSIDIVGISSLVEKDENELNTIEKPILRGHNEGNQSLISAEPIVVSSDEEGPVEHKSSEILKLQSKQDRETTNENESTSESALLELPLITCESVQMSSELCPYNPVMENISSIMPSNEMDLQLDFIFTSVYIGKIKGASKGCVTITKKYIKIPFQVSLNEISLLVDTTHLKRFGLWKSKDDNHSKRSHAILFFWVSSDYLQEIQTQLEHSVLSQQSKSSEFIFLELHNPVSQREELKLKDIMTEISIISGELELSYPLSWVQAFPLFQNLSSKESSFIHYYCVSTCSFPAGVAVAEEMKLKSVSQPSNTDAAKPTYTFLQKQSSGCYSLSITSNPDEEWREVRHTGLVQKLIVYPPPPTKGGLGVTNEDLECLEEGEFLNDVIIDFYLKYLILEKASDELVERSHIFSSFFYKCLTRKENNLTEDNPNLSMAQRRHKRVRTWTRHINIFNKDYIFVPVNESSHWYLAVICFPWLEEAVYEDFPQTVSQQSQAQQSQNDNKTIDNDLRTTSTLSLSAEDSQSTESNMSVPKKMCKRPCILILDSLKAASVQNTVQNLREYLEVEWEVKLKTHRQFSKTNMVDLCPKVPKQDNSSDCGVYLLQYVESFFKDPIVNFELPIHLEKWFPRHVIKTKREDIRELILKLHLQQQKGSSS
The experiment in a line: inhibition of human SENP7 cleavage activity – biochemical, luminescence, SAR follow-up (AID 504497). In kind it is functional.

For assay [2], the target named is Platelet-derived growth factor receptor alpha (Homo sapiens, UniProt P16234). Description: Navigating the Kinome. Panel member name: PDGFRA. In kind it is functional.
Chain of Platelet-derived growth factor receptor alpha (P16234 whole entry): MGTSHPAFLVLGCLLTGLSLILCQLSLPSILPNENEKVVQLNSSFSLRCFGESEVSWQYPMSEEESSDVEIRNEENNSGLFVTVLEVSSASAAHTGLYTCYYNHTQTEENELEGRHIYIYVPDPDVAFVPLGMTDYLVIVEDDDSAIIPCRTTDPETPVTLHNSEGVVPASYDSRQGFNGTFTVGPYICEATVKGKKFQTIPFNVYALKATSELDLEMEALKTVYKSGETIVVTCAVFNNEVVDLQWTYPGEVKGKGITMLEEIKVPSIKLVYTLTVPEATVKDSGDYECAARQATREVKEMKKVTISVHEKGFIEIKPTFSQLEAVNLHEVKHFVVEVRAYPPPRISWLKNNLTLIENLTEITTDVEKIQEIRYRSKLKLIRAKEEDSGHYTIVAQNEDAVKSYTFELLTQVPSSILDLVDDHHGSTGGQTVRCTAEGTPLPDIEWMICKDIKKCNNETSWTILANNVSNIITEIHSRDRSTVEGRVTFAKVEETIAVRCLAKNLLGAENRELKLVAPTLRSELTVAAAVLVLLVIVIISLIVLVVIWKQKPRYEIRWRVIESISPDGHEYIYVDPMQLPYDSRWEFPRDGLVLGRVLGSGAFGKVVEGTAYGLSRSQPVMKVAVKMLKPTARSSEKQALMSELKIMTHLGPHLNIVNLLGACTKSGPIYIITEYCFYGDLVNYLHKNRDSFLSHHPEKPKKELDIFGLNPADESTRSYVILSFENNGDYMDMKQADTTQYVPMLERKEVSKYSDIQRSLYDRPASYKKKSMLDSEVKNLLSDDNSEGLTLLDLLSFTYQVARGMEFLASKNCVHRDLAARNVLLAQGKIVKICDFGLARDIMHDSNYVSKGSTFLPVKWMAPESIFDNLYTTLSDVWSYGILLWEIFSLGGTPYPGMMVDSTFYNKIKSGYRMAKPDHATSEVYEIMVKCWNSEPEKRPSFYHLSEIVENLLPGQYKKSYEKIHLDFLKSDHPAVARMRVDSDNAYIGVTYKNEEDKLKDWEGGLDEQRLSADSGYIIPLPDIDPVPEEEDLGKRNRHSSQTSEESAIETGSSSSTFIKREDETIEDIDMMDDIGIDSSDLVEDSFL
The target in assay [3] is Vascular endothelial growth factor receptor 2 (Homo sapiens, UniProt P35968). In kind it is functional.
For assay [4], the target named is 5'-AMP-activated protein kinase catalytic subunit alpha-1 (Homo sapiens, UniProt Q13131). In kind it is functional.
Chain of 5'-AMP-activated protein kinase catalytic subunit alpha-1 (Q13131 whole entry): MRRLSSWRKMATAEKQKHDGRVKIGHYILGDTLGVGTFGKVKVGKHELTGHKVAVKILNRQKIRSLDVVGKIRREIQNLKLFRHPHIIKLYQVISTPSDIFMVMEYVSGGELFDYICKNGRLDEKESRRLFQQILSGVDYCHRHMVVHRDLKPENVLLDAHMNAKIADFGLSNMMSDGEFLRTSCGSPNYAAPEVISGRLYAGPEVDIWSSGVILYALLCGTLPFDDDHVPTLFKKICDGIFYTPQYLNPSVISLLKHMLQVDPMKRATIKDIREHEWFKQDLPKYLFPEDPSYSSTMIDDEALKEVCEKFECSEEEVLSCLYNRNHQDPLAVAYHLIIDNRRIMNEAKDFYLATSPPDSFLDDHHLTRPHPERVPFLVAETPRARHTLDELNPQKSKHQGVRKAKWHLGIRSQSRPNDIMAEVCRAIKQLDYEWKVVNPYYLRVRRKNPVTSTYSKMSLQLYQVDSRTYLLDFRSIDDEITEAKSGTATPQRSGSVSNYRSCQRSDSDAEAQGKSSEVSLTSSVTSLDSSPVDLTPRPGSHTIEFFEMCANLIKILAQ
Assay [5] has as its target Serine/threonine-protein kinase pim-1 (Homo sapiens, UniProt P11309). In kind it is functional.
The target in assay [6] is High affinity nerve growth factor receptor (Homo sapiens, UniProt P04629). In kind it is functional.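 Also: NTRK1 tested as one member of a kinome-wide profiling panel.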
For assay [7], the target named is Cyclin-dependent kinase 8 (Homo sapiens, UniProt P49336). Description: Navigating the Kinome. Panel member name: CDK8. In kind it is functional.
Chain of Cyclin-dependent kinase 8 (P49336 whole entry): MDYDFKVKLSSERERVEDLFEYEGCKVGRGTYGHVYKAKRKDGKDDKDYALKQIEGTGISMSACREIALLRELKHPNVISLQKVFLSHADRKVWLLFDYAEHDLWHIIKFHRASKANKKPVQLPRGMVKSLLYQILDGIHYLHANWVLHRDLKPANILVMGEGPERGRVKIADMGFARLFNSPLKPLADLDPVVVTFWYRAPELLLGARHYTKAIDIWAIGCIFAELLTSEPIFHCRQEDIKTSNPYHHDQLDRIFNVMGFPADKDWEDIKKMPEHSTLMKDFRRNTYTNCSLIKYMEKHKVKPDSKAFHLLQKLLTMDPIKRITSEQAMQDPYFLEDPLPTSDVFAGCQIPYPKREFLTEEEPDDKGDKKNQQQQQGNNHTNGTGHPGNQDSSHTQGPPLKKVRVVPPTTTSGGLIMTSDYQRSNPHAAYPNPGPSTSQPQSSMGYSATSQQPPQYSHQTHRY
Assay [8] has as its target Tyrosine-protein kinase Fyn (Homo sapiens, UniProt P06241). In kind it is functional.
Assay [9] has as its target BDNF/NT-3 growth factors receptor (Homo sapiens, UniProt Q16620). In kind it is functional.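 Also: NTRK2 measured as one member of a broad kinome-wide kinase profiling panel.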
Assay [10] concerns the target Dual specificity tyrosine-phosphorylation-regulated kinase 1A (Homo sapiens, UniProt Q13627). In kind it is functional.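 Also: measured against DYRK1A as one member of a broad kinome profiling panel.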
The target of assay [11] is Dual specificity tyrosine-phosphorylation-regulated kinase 1B (Homo sapiens, UniProt Q9Y463). Description: Navigating the Kinome. Panel member name: DYRK1B. In kind it is functional.
Chain of Dual specificity tyrosine-phosphorylation-regulated kinase 1B (Q9Y463 whole entry): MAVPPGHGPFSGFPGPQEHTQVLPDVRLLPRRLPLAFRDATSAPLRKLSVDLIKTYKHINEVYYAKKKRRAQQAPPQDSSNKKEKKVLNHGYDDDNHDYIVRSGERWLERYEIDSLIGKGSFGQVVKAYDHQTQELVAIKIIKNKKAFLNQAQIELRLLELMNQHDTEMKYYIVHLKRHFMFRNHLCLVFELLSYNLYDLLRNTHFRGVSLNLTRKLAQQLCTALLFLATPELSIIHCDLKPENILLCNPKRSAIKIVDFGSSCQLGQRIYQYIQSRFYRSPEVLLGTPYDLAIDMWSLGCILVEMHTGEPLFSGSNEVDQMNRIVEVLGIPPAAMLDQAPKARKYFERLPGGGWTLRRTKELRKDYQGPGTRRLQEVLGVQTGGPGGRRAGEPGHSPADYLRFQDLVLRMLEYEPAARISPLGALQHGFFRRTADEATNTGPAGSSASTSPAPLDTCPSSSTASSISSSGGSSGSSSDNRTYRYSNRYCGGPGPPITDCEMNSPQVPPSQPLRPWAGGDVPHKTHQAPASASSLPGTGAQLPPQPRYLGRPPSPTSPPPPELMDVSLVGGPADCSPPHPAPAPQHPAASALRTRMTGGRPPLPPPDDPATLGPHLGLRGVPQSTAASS
In assay [12] the target is T2, Serine/threonine-protein kinase Chk1 (Homo sapiens, UniProt O14757).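 Also: measured as one member of a kinome-wide kinase profiling panel.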
T2 sequence (O14757 whole entry): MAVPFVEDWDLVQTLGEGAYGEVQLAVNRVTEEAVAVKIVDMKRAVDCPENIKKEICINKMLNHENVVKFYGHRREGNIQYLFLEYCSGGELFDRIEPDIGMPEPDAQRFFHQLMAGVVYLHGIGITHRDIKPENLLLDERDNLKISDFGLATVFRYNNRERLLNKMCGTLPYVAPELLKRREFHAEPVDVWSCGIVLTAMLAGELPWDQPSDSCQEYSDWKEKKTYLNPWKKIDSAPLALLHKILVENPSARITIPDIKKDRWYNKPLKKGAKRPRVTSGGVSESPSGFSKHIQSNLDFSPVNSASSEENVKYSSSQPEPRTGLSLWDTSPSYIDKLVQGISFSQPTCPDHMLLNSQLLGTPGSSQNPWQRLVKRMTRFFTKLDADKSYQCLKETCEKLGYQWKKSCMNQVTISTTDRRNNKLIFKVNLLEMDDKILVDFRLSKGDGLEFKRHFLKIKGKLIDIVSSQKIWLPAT
In kind it is functional.

Assay [13] deals with Rho-associated protein kinase 1 (Homo sapiens, UniProt Q13464). In kind it is functional.
The next assay deals with Melanocortin receptor 4 (Homo sapiens, UniProt P32245). The experiment in a line: inhibitors of MC4R cAMP signaling – cell-based, TR-FRET, biased antagonists, dose response (AID 602298).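 Also: antagonist potency against agonist-stimulated cAMP production.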 In kind it is functional.
In assay [14] the test system is Streptococcus sp. 'group A'. Description: Streptococcus pyogenes SK(-)GAS viability under kanamycin – luminescence, BacTiterGlo, confirmation, counter-screen for streptokinase expression inhibitor project, dose response (AID 1900). In kind it is functional, organism-based.
A further assay concerns the target Beta-galactosidase (Escherichia coli, UniProt Q8VNN2). Description: detection-enzyme interference by beta-gal modulators – biochemical, E. coli enzyme, set 3, artefact control for CCR6 antagonist project, dose response (AID 504712). In kind it is functional.
The target of assay [15] is Matrix metalloproteinase-14 (Homo sapiens, UniProt P50281). Description: Dose Response confirmation of uHTS hits for a small molecule inhibitors of MT1-MMP activation in a fluorescence assay set 1. In kind it is functional.

Activity calls are given as the source filed them.

Chain of BDNF/NT-3 growth factors receptor (Q16620 whole entry): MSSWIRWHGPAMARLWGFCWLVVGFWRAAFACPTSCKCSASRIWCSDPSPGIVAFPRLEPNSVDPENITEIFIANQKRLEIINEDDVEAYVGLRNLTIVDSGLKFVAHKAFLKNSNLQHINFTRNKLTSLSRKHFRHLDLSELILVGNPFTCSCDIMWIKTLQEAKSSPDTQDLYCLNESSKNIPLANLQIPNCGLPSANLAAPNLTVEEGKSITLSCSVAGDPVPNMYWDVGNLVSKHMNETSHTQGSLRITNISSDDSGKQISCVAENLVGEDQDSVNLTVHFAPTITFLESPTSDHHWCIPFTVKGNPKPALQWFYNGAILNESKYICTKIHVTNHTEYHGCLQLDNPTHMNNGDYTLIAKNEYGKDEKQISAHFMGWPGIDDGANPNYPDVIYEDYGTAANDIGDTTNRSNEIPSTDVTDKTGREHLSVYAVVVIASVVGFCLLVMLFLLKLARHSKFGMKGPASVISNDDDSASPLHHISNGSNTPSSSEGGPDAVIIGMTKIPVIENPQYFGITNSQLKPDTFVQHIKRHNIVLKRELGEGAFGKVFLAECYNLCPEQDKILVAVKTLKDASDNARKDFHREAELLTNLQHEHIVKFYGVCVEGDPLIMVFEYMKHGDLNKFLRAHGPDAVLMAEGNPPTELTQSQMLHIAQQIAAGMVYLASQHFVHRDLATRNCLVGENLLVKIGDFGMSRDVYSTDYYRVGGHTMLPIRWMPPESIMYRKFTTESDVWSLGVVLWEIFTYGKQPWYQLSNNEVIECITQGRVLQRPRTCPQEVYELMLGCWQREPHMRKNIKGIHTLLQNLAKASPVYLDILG
Chain of Beta-galactosidase (Q8VNN2 whole entry): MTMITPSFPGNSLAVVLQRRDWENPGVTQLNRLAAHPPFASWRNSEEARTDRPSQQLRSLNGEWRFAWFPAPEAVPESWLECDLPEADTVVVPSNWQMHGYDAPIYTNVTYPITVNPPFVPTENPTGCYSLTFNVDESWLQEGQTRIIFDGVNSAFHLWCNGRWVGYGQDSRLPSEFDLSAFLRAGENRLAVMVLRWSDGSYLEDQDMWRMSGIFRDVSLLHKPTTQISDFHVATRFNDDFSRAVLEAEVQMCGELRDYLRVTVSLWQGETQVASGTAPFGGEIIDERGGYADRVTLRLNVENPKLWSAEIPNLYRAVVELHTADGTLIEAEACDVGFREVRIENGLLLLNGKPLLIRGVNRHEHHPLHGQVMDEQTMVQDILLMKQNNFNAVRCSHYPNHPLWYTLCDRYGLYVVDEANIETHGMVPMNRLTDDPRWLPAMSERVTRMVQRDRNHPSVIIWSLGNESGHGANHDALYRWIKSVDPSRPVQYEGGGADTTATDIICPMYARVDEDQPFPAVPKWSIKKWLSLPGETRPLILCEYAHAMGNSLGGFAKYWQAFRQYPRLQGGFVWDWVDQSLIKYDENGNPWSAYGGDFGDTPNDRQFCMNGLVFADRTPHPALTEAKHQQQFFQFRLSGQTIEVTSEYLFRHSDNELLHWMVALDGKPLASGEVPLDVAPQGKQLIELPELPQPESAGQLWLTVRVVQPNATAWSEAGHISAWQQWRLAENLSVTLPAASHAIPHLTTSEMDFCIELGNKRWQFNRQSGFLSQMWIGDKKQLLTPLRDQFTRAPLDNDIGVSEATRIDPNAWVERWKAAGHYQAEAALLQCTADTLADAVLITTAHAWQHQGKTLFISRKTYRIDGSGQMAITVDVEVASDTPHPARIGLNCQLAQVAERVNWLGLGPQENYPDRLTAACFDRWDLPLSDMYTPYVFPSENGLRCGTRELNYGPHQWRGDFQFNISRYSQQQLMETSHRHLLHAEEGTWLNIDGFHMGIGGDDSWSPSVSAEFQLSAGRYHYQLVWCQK
Chain of Serine/threonine-protein kinase pim-1 (P11309 whole entry): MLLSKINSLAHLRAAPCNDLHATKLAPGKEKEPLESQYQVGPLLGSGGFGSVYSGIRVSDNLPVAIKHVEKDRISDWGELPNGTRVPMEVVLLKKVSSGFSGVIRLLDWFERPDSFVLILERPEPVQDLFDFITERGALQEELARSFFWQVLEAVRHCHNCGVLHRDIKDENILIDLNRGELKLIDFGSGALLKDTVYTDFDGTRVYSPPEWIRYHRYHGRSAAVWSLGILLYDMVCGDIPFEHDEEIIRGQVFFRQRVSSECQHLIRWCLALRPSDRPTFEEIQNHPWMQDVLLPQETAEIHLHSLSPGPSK

With `Cc1ccc(NC(=O)COc2cccc(/C=C3\SC(=S)N(CCC(=O)O)C3=O)c2)cc1Cl`, the IC50 in assay [1] was 12.7 µM (active).

For `COc1cccc(C(C)NC(=O)c2ccc(-c3ccncc3)s2)c1` (configuration not stated), the Ki in [2] was > 2.51 µM (inactive); in assay [3] it was > 2.51 µM (inactive); in [4], > 3.16 µM (inactive); in assay [5], > 6.31 µM (inactive); in [6] it was > 3.16 µM (inactive); in assay [7] it was 3.16 µM (active). The Ki was > 6.31 µM (inactive) in assay [8]; > 3.98 µM (inactive) in [9]; > 2 µM (inactive) in assay [10]; > 2.51 µM (inactive) in [11]; 79.4 nM (active) in assay [12]; 1.26 nM (active) in [13].

Take `O=Nc1c(-c2c(O)[nH]c3cc(Br)ccc23)[nH]c2ccccc12`: the IC50 at Melanocortin receptor 4 is 6.37 µM (active); on Beta-galactosidase, 40.8 µM (inactive); in assay [15] it was 1.78 µM (active). In addition, the EC50 in assay [14] was 2.6 µM (active).
